Assay [1] concerns the target Carbonic anhydrase 1 (Homo sapiens, UniProt P00915). Briefly: Inhibition of human recombinant carbonic anhydrase-1 preincubated for 6 hrs by stopped-flow CO2 hydration assay.
Assay [2] deals with Carbonic anhydrase 2 (Homo sapiens, UniProt P00918). The assay is described as follows: Inhibition of human recombinant carbonic anhydrase-2 preincubated for 6 hrs by stopped-flow CO2 hydration assay.
Assay [3] deals with Carbonic anhydrase 9 (Homo sapiens, UniProt Q16790). The assay is described as follows: Inhibition of human recombinant carbonic anhydrase-9 preincubated for 6 hrs by stopped-flow CO2 hydration assay.
Assay [4] addresses Carbonic anhydrase 12 (Homo sapiens, UniProt O43570). Briefly: Inhibition of human recombinant carbonic anhydrase-12 preincubated for 6 hrs by stopped-flow CO2 hydration assay.

Some results are limits rather than exact numbers.

Carbonic anhydrase 1, sequence (P00915 whole entry): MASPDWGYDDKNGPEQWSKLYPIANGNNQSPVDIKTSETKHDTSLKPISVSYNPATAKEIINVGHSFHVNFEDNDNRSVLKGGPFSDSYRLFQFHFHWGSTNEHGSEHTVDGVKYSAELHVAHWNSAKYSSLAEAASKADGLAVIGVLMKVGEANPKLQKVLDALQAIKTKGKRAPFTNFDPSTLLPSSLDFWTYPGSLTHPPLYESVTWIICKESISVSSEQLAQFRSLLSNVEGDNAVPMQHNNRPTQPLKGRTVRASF
Carbonic anhydrase 12, sequence (O43570 whole entry): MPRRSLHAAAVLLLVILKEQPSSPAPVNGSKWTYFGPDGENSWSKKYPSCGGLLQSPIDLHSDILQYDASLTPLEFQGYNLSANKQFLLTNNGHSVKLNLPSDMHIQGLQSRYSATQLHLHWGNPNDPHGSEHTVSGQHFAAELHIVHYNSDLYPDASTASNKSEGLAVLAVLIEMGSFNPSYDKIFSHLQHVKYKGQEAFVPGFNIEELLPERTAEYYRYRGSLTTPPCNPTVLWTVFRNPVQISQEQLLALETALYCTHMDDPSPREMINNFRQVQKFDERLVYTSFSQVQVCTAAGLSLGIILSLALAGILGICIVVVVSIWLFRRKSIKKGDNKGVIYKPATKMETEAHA

`O=c1[nH]c(=O)c2cc([N+](=O)[O-])ccc2[nH]1`: the Ki in assay [1] is > 500000 nM; in assay [2], > 500000 nM; in assay [3] it was 5470 nM.

Regarding `O=c1[nH]cnc2ccccc12` [QUINAZOLINONE], the Ki in assay [2] is > 500000 nM; in assay [3] it was 15700 nM; in assay [4], 10500 nM.

As for `CC1=Nc2ccccc2S(=O)(=O)N1`, the Ki in assay [1] amounted to 13800 nM; in assay [2], 642 nM; in assay [3] it was 349 nM.

Regarding `O=C(Nc1ccccc1C(=O)Nc1ccc2c(C(F)(F)F)cc(=O)oc2c1)c1ccc(F)cc1`, the Ki was > 500000 nM in assay [1], > 500000 nM in assay [2] and 20 nM in assay [3].

In the case of `O=C(Nc1ccccc1C(=O)Nc1ccc2c(C(F)(F)F)cc(=O)oc2c1)c1ccccc1`, the inhibition constant (Ki) in assay [1] was > 500000 nM; in assay [2], > 500000 nM; in assay [3] it was 10.9 nM.

In the case of `O=C1Nc2ccccc2S(=O)(=O)N1`, the Ki in assay [1] was found to be 783 nM; in assay [2], 127 nM; in assay [3], 87.4 nM.

As to `Cc1cc(=O)oc2cc(NC(=O)c3ccccc3NC(=O)c3ccccc3)ccc12`, the Ki was > 500000 nM in assay [1], > 500000 nM in assay [2] and 21.6 nM in assay [3].

On to `O=C(Nc1ccccc1C(=O)Nc1ccc2c(C(F)(F)F)cc(=O)oc2c1)c1ccc(Cl)cc1`, for which the results for the Ki in assay [1], in assay [2] and in assay [3] were > 500000 nM, > 500000 nM and 24.5 nM, respectively.

As for `Cc1cc(=O)oc2cc(NC(=O)c3ccccc3NC(=O)c3ccc(Cl)cc3)ccc12`, the Ki in assay [1] is > 500000 nM; in assay [2], > 500000 nM; in assay [3], 18.4 nM.

`Cc1cc(=O)oc2cc(NC(=O)c3ccccc3NC(=O)c3ccc(F)cc3)ccc12`: the Ki in assay [1] is > 500000 nM; in assay [2], > 500000 nM; in assay [3], 15.1 nM.

Turning to `O=S1(=O)NC=Nc2ccccc21`, the Ki in assay [1] was 12600 nM; in assay [2], 378 nM; in assay [3], 116 nM.

One may read the Ki as the equilibrium dissociation constant of an inhibitor or competing ligand from its target.

Source of the values: ChEMBL document CHEMBL3872261, “Coumarins and other fused bicyclic heterocycles with selective tumor-associated carbonic anhydrase isoforms inhibitory activity” (Bioorg Med Chem, 2017).
